1 compound from US7893256B2, “Azabicycloalkane compounds” (Theravance, Inc., priority 2003, dated 2011) can be followed below.

Each structure is given as a SMILES string. pEC50, pKi: −log10 of the molar value. Where only a bound is given, the exact number is not on record here.

Test [1] addresses T1, human β2 adrenergic receptor (Homo sapiens, UniProt P07550).
T1 construct: expressed in transfected cells; membranes
Description: Radioligand binding assay for human β2 adrenergic receptor (Assay Test Procedure A). The method, then: Chinese hamster ovarian (CHO) cell lines stably expressing cloned human β1, β2 or β3 adrenergic receptors, respectively, were grown to near confluency in Hams F-12 media with 10% FBS in the presence of 500 μg/mL Geneticin. The cell monolayer was lifted with 2 mM EDTA in PBS. Cells were pelleted by centrifugation at 1,000 rpm, and cell pellets were either stored frozen at −80° C. or membranes were prepared immediately for use. For preparation of β1 and β2 receptor expressing membranes, cell pellets were re-suspended in lysis buffer (10 mM HEPES/HCl, 10 mM EDTA, pH 7.4 at 4° C.) and homogenized using a tight-fitting Dounce glass homogenizer (30 strokes) on ice. […] The protein concentration of the membrane suspension was determined by the methods described in Lowry et al., 1951, Journal of Biological Chemistry, 193, 265; and Bradford, Analytical Biochemistry, 1976, 72, 248-54. […]
Binding assays were performed in 96-well microtiter plates in a total assay volume of 100 μL with 10-15 μg of membrane protein containing the human β1, β2 or β3 adrenergic receptors in assay buffer (75 mM Tris/HCl pH 7.4 at 25° C., 12.5 mM MgCl2, 1 mM EDTA, 0.2% BSA). […] Non-specific binding was determined in the presence of 10 μM propranolol. […] Filter plates were washed three times with filtration buffer (75 mM Tris/HCl pH 7.4 at 4° C., 12.5 mM MgCl2, 1 mM EDTA) to remove unbound radioactivity. […]

Test [2] has as its target T1, human β2 adrenergic receptor. Nature of the test: Whole-cell cAMP Flashplate assay in CHO cell lines heterologously expressing human β2 adrenergic receptor (Assay Test Procedure C). The test is classed as cell-based. The method, then: cAMP assays were performed in a radioimmunoassay format using the Flashplate Adenylyl Cyclase Activation Assay System with [^125I]-cAMP (NEN SMP004, PerkinElmer Life Sciences Inc., Boston, Mass.), according to the manufacturers instructions. For the determination of […] receptor agonist potency (EC50), CHO-K1 cell lines stably expressing cloned human β1, β2 or β3 adrenergic receptors were grown to near confluency in HAM's F-12 media supplemented with 10% FBS and Geneticin (250 μg/mL). Cells were rinsed with PBS and detached in dPBS (Dulbecco's Phosphate Buffered Saline, without CaCl2 and MgCl2) containing 2 mM EDTA or Trypsin-EDTA solution (0.05% trypsin/0.53 mM EDTA). After counting cells in Coulter cell counter, cells were pelleted by centrifugation at 1,000 rpm and re-suspended in stimulation buffer containing IBMX (PerkinElmer Kit) pre-warmed to room temperature to a concentration of 1.6×10^6 to 2.8×10^6 cells/mL. About 60,000 to 80,000 cells per well were used in this assay. […] The amount of cAMP produced (pmol/well) was calculated based on the counts observed for the samples and cAMP standards as described in the manufacturer's user manual. Data were analyzed by nonlinear regression analysis with the GraphPad Prism Software package (GraphPad Software, Inc., San Diego, Calif.) with the sigmoidal equation. […]

T1 sequence (P07550 whole entry): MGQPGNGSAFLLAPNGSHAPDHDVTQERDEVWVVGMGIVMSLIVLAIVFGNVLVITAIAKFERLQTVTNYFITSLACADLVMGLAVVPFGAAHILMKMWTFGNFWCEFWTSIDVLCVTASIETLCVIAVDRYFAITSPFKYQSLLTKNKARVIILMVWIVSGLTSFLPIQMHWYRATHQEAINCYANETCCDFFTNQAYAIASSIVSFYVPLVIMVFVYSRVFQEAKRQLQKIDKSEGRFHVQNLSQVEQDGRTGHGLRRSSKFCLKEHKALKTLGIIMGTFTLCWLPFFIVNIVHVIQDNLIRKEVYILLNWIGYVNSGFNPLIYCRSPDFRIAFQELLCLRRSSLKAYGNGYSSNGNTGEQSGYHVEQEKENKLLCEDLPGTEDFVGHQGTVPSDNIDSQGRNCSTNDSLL

With `C[N+]1(CCCCCCCCCNC[C@H](O)c2ccc(O)c3[nH]c(=O)ccc23)C2CC(OC(=O)C(O)(c3cccs3)c3cccs3)CC1C1OC12.C[N+]1(CCCCCCCCCNC[C@H](O)c2ccc(O)c3[nH]c(=O)ccc23)C2CC(OC(=O)C(O)(c3cccs3)c3cccs3)CC1C1OC12.O=C([O-])C(F)(F)F.O=C([O-])C(F)(F)F` (stereo partly drawn) [Example 1, 7-(2-Hydroxy-2,2-dithiophen-2-ylacetoxy)-9-{9-[(R)-2-hydroxy-2-(8-hydroxy-2-oxo-1,2-dihydroquinolin-5-yl)ethylamino]nonyl}-9-methyl-3-oxa-9-azonia-tricyclo[3.3.1.0^2,4]nonane Ditrifluoroacetate], the pKi (in general, the Ki on a negative log10 scale, so that one unit is a factor of ten) in test [1] (radioligand displacement, CHO cell membranes, [3H]-dihydroalprenolol) is more than 7.30. The “ratio of Ki(β1)/Ki(β2)” value in test [1] (receptor subtype selectivity, binding, β2 over β1) is “greater than 5”. Also, the pEC50 (in general, the EC50 on a negative log10 scale, so that one unit is a factor of ten) in test [2] (cAMP, CHO-K1 cells expressing cloned human β2 receptor) was more than 8.00. In test [2] (receptor subtype selectivity, functional, β2 over β1), the “ratio of EC50(β1)/EC50(β2)” value was “greater than 10”.
